Results from patent EP0603240B1, “SAFENING HERBICIDAL PYRAZOLYLSULFONYLUREAS” (priority 1991, dated 1993).

Key:
corn = test: Example 14, Procedure II: Herbicide No. 1 + metolachlor (No. 12) with Antidote No. 17; assay type: in vivo
Protocol: Containers were filled and compacted with a fumigated silt loam top soil to a depth of about 1.3 cm from the top of the container. A first container was designated as an untreated control, a second container was designated as a herbicide control, and a third container was designated as a herbicide + antidote test container. Each of the containers was seeded with a crop species. A measured amount of herbicide dispersed or dissolved in acetone was applied to a measured quantity of soil. To this same quantity of soil treated with herbicide, there was added a measured amount of antidote dispersed or dissolved in acetone. The quantity of soil treated with the herbicide and antidote was thoroughly mixed to incorporate the herbicide and antidote in the soil uniformly. The seed bed in the third container of soil was covered with the soil treated with the herbicide and antidote and the container was leveled. For each test series, the seed beds of the first and second containers were likewise covered by soil layers. the cover layer of the first container was not treated with herbicide or antidote.
The containers were then placed on a bench in a greenhouse and sub-irrigated as required for the duration of the test. […] Plant response is measured in terms of percent injury. Antidote efficacy is indicated as the difference in plant injury by the herbicide(s) without the antidote and with the antidote.
This procedure is the same as Procedure I, but modified in the manner that after incorporation of the chemicals (herbicide and antidote) the containers with the covered seedbed were treated with an initial overhead irrigation equivalent to 0.6 cm rainfall, then subsequently sub-irrigated as required on greenhouse benches.
In this example a plurality of dichloroacetamide antidotes were tested for their safening efficacy against a herbicidal composition comprising Herbicide No. […] The procedure used in this example was Procedure II above. […]

[1] = test system: velvetleaf (Abutilon theophrasti); test: as above; assay type: in vivo
[2] = Herbicide No.1 0.14 + No.12 4.48 kg/ha + Antidote No.17 0.15 kg/ha
[3] = Herbicide No.1 0.56 + No.12 4.48 kg/ha + Antidote No.17 0.15 kg/ha
[4] = Herbicide No.1 2.24 + No.12 4.48 kg/ha + Antidote No.17 0.15 kg/ha

How did the “% Injury Corn” value (corn; [2]) turn out when `CC1COc2ccccc2N1C(=O)C(Cl)Cl` (stereo not drawn) [compound 17] was run?
The value was 15%.

What about the “% Injury Corn” value (corn; [3]) of the same compound?
Its value is 25%.

What about the “% Injury Corn” value (corn; [4]) of the same compound?
Its value is 80%.

What about the “% Injury VL” value [1, 2] of the same compound?
The value was 90%.

What about the “% Injury VL” value [1, 3] of the same compound?
Its value is 95%.

What about the “% Injury VL” value [1, 4] of the same compound?
The value was 100%.
